Measured values reported in US11485742B2, “2-azaspiro[3.4]octane derivatives as M4 agonists” (NOVARTIS AG, priority 2019, dated 2022).

Target: T1, Cloned human M1 receptor (CHRM1) (Homo sapiens, UniProt P11229)
T1 construct: expressed in transfected cells; host or cells: HEK293
T1 sequence (P11229 1-460): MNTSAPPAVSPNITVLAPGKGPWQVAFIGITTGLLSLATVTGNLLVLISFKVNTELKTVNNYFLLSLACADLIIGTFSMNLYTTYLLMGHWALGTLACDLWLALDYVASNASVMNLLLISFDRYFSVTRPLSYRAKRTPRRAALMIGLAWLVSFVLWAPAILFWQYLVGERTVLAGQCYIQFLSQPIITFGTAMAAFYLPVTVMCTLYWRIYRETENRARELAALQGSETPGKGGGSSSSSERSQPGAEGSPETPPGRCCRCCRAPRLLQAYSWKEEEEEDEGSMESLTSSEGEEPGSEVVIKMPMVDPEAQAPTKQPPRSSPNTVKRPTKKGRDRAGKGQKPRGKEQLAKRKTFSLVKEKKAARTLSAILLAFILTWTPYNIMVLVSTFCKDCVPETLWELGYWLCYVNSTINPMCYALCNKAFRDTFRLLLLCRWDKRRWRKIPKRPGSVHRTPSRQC
Test: CHRM1 Ca++ Flux Assay (HEK293 M1 cells, agonist mode)
Format: cell-based
Conditions: for Emax: read-out: M1 FDSS PA %; for EC50: geometric mean if tested more than once, read-out: M1 FDSS EC50
Outline: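 HEK293 cells stably expressing human M1 were loaded with Ca++ dye, then given compounds (11-point dose, triplicate) in HBSS −Ca/−Mg, 20 mM HEPES. Ca++ flux was read over 3 min (agonist mode). Four-parameter curves were fitted, with activity as percent of carbachol EC100.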

Fc1ccc(OC2CCOCC2)c(C2CCN([C@@H]3COC4(C3)CN(c3nnco3)C4)CC2)c1 [Example 1G, (S)-7-(4-(5-fluoro-2-((tetrahydro-2H-pyran-4-yl)oxy)phenyl)piperidin-1-yl)-2-(1,3,4-oxadiazol-2-yl)-5-oxa-2-azaspiro[3.4]octane]
Emax (Percent Activity (PA)): 77%
EC50: 973 nM

Fc1cc(F)c(OC2CC3(COC3)C2)c(C2CCN([C@@H]3COC4(C3)CN(c3nnco3)C4)CC2)c1 [Example 2AA, (S)-7-(4-(2-((2-oxaspiro[3.3]heptan-6-yl)oxy)-3,5-difluorophenyl)piperidin-1-yl)-2-(1,3,4-oxadiazol-2-yl)-5-oxa-2-azaspiro[3.4]octane]
Emax (Percent Activity (PA)): 30%
EC50: 6660 nM

COc1ccc(F)cc1C1CCN([C@@H]2COC3(C2)CN(c2ncco2)C3)CC1 [Example 4I, (S)-7-(4-(5-fluoro-2-methoxyphenyl)piperidin-1-yl)-2-(oxazol-2-yl)-5-oxa-2-azaspiro[3.4]octane]
Emax (Percent Activity (PA)): 82%
EC50: 227 nM

COCCOc1ccc(F)cc1C1CCN([C@@H]2COC3(C2)CN(c2nncs2)C3)CC1 [Example 5S, (S)-7-(4-(5-fluoro-2-(2-methoxyethoxy)phenyl)piperidin-1-yl)-2-(1,3,4-thiadiazol-2-yl)-5-oxa-2-azaspiro[3.4]octane]
Emax (Percent Activity (PA)): 87%
EC50: 761 nM

Fc1ccc([C@H]2CCOC2)c(C2CCN([C@@H]3COC4(C3)CN(c3nnco3)C4)CC2)c1 (single isomer, unassigned) [Example 3F, (S)-7-(4-(5-fluoro-2-((R)-tetrahydrofuran-3-yl)phenyl)piperidin-1-yl)-2-(1,3,4-oxadiazol-2-yl)-5-oxa-2-azaspiro[3.4]octane or (S)-7-(4-(5-fluoro-2-((S)-tetrahydrofuran-3-yl)phenyl)piperidin-1-yl)-2-(1,3,4-oxadiazol-2-yl)-5-oxa-2-azaspiro[3.4]octane]
M1 FDSS PA % (Percent Activity (PA)): 86%
EC50: 595 nM

Fc1ccc(OC2CCOCC2)c(C2CCN([C@@H]3COC4(C3)CN(c3ncco3)C4)CC2)c1 [Example 4E, (S)-7-(4-(5-fluoro-2-((tetrahydro-2H-pyran-4-yl)oxy)phenyl)piperidin-1-yl)-2-(oxazol-2-yl)-5-oxa-2-azaspiro[3.4]octane]
Emax (Percent Activity (PA)): 75%
EC50: 979 nM

COc1ccccc1C1CCN([C@@H]2COC3(C2)CN(c2nncs2)C3)CC1 [Example 5R, (S)-7-(4-(2-methoxyphenyl)piperidin-1-yl)-2-(1,3,4-thiadiazol-2-yl)-5-oxa-2-azaspiro[3.4]octane]
Emax (Percent Activity (PA)): 52%
EC50: 904 nM

Fc1ccc(OCC2C3COCC32)c(C2CCN([C@@H]3COC4(C3)CN(c3nnco3)C4)CC2)c1 (stereo partly drawn) [Example 2Z, (7S)-7-(4-(2-((3-oxabicyclo[3.1.0]hexan-6-yl)methoxy)-5-fluorophenyl)piperidin-1-yl)-2-(1,3,4-oxadiazol-2-yl)-5-oxa-2-azaspiro[3.4]octane]
Emax (Percent Activity (PA)): 11%
EC50: 5060 nM

Fc1cc(OCC2COC2)c(C2CCN([C@@H]3COC4(C3)CN(c3ncco3)C4)CC2)cc1F [Example 4O, (S)-7-(4-(4,5-difluoro-2-(oxetan-3-ylmethoxy)phenyl)piperidin-1-yl)-2-(oxazol-2-yl)-5-oxa-2-azaspiro[3.4]octane]
Emax (Percent Activity (PA)): 63%
EC50: 364 nM

Fc1ccc(O[C@@H]2CCOC2)c(C2CCN([C@@H]3COC4(C3)CN(c3ncco3)C4)CC2)c1 [Example 4D, (S)-7-(4-(5-fluoro-2-(((R)-tetrahydrofuran-3-yl)oxy)phenyl)piperidin-1-yl)-2-(oxazol-2-yl)-5-oxa-2-azaspiro[3.4]octane]
Emax (Percent Activity (PA)): 95%
EC50: 741 nM

Fc1cc(O[C@@H]2CCOC2)c(C2CCN([C@@H]3COC4(C3)CN(c3nncs3)C4)CC2)cc1F [Example 5M, (S)-7-(4-(4,5-difluoro-2-(((R)-tetrahydrofuran-3-yl)oxy)phenyl)piperidin-1-yl)-2-(1,3,4-thiadiazol-2-yl)-5-oxa-2-azaspiro[3.4]octane]
Emax (Percent Activity (PA)): 66%
EC50: 786 nM

COCCOc1ccc(F)cc1C1CCN([C@@H]2COC3(C2)CN(c2ncco2)C3)CC1 [Example 4L, (S)-7-(4-(5-fluoro-2-(2-methoxyethoxy)phenyl)piperidin-1-yl)-2-(oxazol-2-yl)-5-oxa-2-azaspiro[3.4]octane]
Emax (Percent Activity (PA)): 66%
EC50: 336 nM

Fc1ccc(OC[C@H]2COCCO2)c(C2CCN([C@@H]3COC4(C3)CN(c3nncs3)C4)CC2)c1 [Example 5K, (S)-7-(4-(2-(((R)-1,4-dioxan-2-yl)methoxy)-5-fluorophenyl)piperidin-1-yl)-2-(1,3,4-thiadiazol-2-yl)-5-oxa-2-azaspiro[3.4]octane]
Emax (Percent Activity (PA)): 96%
EC50: 434 nM

Fc1cc(OC2COC2)c(C2CCN([C@@H]3COC4(C3)CN(c3ncco3)C4)CC2)cc1F [Example 4Q, (S)-7-(4-(4,5-difluoro-2-(oxetan-3-yloxy)phenyl)piperidin-1-yl)-2-(oxazol-2-yl)-5-oxa-2-azaspiro[3.4]octane]
Emax (Percent Activity (PA)): 71%
EC50: 294 nM

COC(C)(C)CCOc1ccc(F)cc1C1CCN([C@@H]2COC3(C2)CN(c2nncs2)C3)CC1 [Example 5N, (S)-7-(4-(5-fluoro-2-(3-methoxy-3-methylbutoxy)phenyl)piperidin-1-yl)-2-(1,3,4-thiadiazol-2-yl)-5-oxa-2-azaspiro[3.4]octane]
Emax (Percent Activity (PA)): 68%
EC50: 2970 nM
